Results as given in publication PMC10609854 (Pharmaceuticals, 2023).

System: carrageenan-induced mechanical hyperalgesia
Experiment: carrageenan-induced mechanical hyperalgesia (Randall-Selitto)
Assay type: in vivo
Conditions: rats, 3 h after carrageenan, vehicle 87.8%
Method: The acute, local inflammation and paw edema was induced by subplantar injection of 0.1 mL of 1% carrageenan (made in PBS) into the rat right hind paw. The paw volume was measured using the dislocation of the water column of the plethysmometer (Plethysmometr 7140, Ugo Basile) before and at 1, 2, and 3 h after subplantar injection of carrageenan.
Furthermore, to assess the heightened sensitivity to mechanical stimuli, we employed the pain pressure threshold test. This involved applying increasing pressure to the dorsal surface of the right hind paw using an automated gauge (Analgesy Meter 37215, Ugo Basile, Gemonio, Italy), following the method outlined by Randall and Selitto. The force’s intensity, measured in grams, was recorded when the paw was withdrawn (withdrawal threshold). For each animal, withdrawal thresholds were recorded both prior to the administration of carrageenan and three hours afterward. The results were expressed as a percentage of the initial reaction, with the nociceptive response before carrageenan administration considered as the baseline (100% response).

O=C(O)C(=O)O.c1ccc(-c2ccc(OCCCCCN3CCCCCC3)cc2)cc1 [Compound E153, 1-(5-(4-Phenylphenoxy)pentyl)azepane hydrogen oxalate]
mechanical pain threshold, % of baseline (15 mg/kg): 112.5% | mechanical pain threshold, % of baseline (30 mg/kg): 111.8%
